Reference: PMC4970445, “Multiple active site residues are important for photochemical efficiency in the light-activated enzyme protochlorophyllide oxidoreductase (POR)^” (Journal of Photochemistry and Photobiology. B, Biology, 2016)

What was measured:
Test in all cases: FRET from protein Trp to bound NADPH
Format in all cases: binding
[1] = biological target: T1, protochlorophyllide oxidoreductase (POR) (Thermosynechococcus vestitus, UniProt Q8DLC1, K42A)
T1 construct: recombinant, overexpressed in Escherichia coli, purified as in earlier work
Text: (§1) FRET from protein Trp to bound NADPH on protochlorophyllide oxidoreductase (POR)

[2] = biological target: T2, protochlorophyllide oxidoreductase (POR) (Thermosynechococcus vestitus, UniProt Q8DLC1, T230F)
T2 construct: recombinant, overexpressed in Escherichia coli, purified as in earlier work
Text: as §1

[3] = biological target: T3, protochlorophyllide oxidoreductase (POR) (Thermosynechococcus vestitus, UniProt Q8DLC1)
T3 construct: recombinant, overexpressed in Escherichia coli, purified as in earlier work
Text: as §1

[4] = biological target: T4, protochlorophyllide oxidoreductase (POR) (Thermosynechococcus vestitus, UniProt Q8DLC1, G19A)
T4 construct: recombinant, overexpressed in Escherichia coli, purified as in earlier work
Text: as §1

[5] = biological target: T5, protochlorophyllide oxidoreductase (POR) (Thermosynechococcus vestitus, UniProt Q8DLC1, R38V)
T5 construct: recombinant, overexpressed in Escherichia coli, purified as in earlier work
Text: as §1

[6] = biological target: T6, protochlorophyllide oxidoreductase (POR) (Thermosynechococcus vestitus, UniProt Q8DLC1, S16C)
T6 construct: recombinant, overexpressed in Escherichia coli, purified as in earlier work
Text: as §1

T1 sequence (Q8DLC1 entry or part of it K42A): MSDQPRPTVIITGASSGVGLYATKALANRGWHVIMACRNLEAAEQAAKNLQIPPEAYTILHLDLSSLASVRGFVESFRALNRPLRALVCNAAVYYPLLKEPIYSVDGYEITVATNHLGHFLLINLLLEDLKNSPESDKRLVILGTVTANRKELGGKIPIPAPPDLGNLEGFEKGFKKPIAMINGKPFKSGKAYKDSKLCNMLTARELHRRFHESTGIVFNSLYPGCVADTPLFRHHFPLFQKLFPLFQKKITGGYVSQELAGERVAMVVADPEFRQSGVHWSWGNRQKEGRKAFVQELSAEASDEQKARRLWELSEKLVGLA
T5 sequence (Q8DLC1 entry or part of it R38V): as the sequence (Q8DLC1 entry or part of it K42A) above, with R38V, A42K counted along it
T3 sequence (Q8DLC1 1-322): as the sequence (Q8DLC1 entry or part of it K42A) above, with A42K counted along it
T2 sequence (Q8DLC1 entry or part of it T230F): as the sequence (Q8DLC1 entry or part of it K42A) above, with A42K, T230F counted along it
T4 sequence (Q8DLC1 entry or part of it G19A): as the sequence (Q8DLC1 entry or part of it K42A) above, with G19A, A42K counted along it
T6 sequence (Q8DLC1 entry or part of it S16C): as the sequence (Q8DLC1 entry or part of it K42A) above, with S16C, A42K counted along it

Kd [1]: 0.23 ± 0.081 µM
Kd [2]: 0.436 ± 0.087 µM
Kd [3]: 0.021 ± 0.001 µM
Kd [4]: 0.182 ± 0.031 µM
Kd [5]: 0.411 ± 0.076 µM
Kd [6]: 0.325 ± 0.09 µM
SMILES: NC(=O)C1=CN([C@@H]2O[C@H](COP(=O)(O)OP(=O)(O)OC[C@H]3O[C@@H](n4cnc5c(N)ncnc54)[C@H](OP(=O)(O)O)[C@@H]3O)[C@@H](O)[C@H]2O)C=CC1 [NADPH]
